From patent US6759420B1, “Arylalkanoyl derivatives, processes for their preparation, their use and pharmaceutical compositions containing them” (Aventis Pharma Deutschland GmbH, priority 1999, dated 2004)
Counter-ions that a name gives are not always drawn.

Molecular target: factor Xa (Homo sapiens, UniProt P00742)
Experiment: Factor Xa assay (Test 1a), chromogenic
Format: biochemical
Design: purchased Enzyme Research Laboratories, Inc; South Bend, Ind
Conditions: in vitro factor Xa assay Test 1a; human factor Xa 0.5 nM, substrate S-2765 140 μM, 25° C.; Ki from IC50 corrected for substrate competition
Source text: The ability of a compound of formula (I) to inhibit factor Xa, thrombin, plasmin, elastase, and trypsin may be assessed by determining the concentration of compound of formula (I) that inhibits enzyme activity by 50% (IC50). Purified enzymes are used in chromogenic assays. To determine the inhibition constant, the IC50 value is corrected for competition with substrate using the formula:
Ki=IC50×(1/{1+((substrate concentration)/substrate Km)})
where Km is the Michaelis-Menten constant. Y. -C. Chen and W. H. Prusoff, Biochem. Pharmacol. 22: […] (1973), which is incorporated herein by reference.
TBS-PEG buffer (50 mM Tris-Cl, pH 7.8, 200 mM NaCl, 0.05% (w/v) PEG-8000, 0.02% (w/v) NaN3) is used for this assay. The IC50 is determined by combining in appropriate wells of a Costar half-area microtiter plate 25 μl human factor Xa (Enzyme Research Laboratories, Inc.; South Bend, Ind.) in TBS-PEG; 40 μl 10% (v/v) DMSO in TBS-PEG (uninhibited control) or various concentrations of the compound to be tested diluted in 10% (v/v) DMSO in TBS-PEG; and substrate S-2765 (N-benzyloxycarbonyl-D-Arg-Gly-L-Arg-p-nitroanilide; Kabi Pharmacia, Inc.; Franklin Ohio) in TBS-PEG.
The assays are performed by pre-incubating the compound of formula (I) plus enzyme for 10 min, then the assay is initiated by adding substrate to obtain a final volume of 100 μl. The initial velocity of chromogenic substrate hydrolysis is measured by the change in absorbance at 405 nm using a Bio-tek Instruments kinetic plate reader (Ceres UV900HDi) at 25° C. during the linear portion of the time course (usually 1.5 min after addition of substrate). The concentration of inhibitor that causes a 50% decrease in the rate of substrate hydrolysis is predicted by linear regression after plotting the relative rates of hydrolysis (compared to the uninhibited control) versus the log of the compound of formula (I) concentration. The enzyme concentration is 0.5 nM and substrate concentration is 140 μM.

factor Xa, sequence (P00742 235-488 limits assumed): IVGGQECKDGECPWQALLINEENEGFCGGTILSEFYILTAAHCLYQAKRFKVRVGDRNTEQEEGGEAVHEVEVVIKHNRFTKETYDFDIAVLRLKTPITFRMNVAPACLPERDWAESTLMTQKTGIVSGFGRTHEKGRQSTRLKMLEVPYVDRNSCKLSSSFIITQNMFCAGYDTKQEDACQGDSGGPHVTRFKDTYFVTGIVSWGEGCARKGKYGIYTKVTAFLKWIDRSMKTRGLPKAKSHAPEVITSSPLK
factor Xa, sequence (P00742 41-179 limits assumed): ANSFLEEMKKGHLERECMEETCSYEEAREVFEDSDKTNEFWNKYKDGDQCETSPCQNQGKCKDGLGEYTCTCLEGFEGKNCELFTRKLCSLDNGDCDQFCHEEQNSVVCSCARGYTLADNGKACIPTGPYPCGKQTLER

| Ki | Structure (SMILES) |
| --- | --- |
| 2.8 nM | CCCC[C@H](NC(=O)C(Cc1ccc(C(=N)N)cc1)c1cccnc1)C(=O)N[C@@H](CCCNC(=N)N)C(N)=O (mixture of isomers) [Example 23, 2-(S)-[3-(4-Carbamimidoyl-phenyl)-2-(R,S)-pyridin-3-yl-propionylamino]-hexanoic acid (1-(S)-carbamoyl-4-guanidino-butyl)-amide trifluoroacetic acid salt] |
| 1930 nM | N=C(N)NCCC[C@H](NC(=O)[C@H](CO)NC(=O)C(Cc1ccc(C(=N)N)cc1)c1ccccc1)C(N)=O (mixture of isomers) [Example 57, 2-(S)-{2-(S)-[3-(4-Carbamimidoyl-phenyl)-2-(R,S)-phenyl-propionylamino]-3-hydroxy-propionylamino}-5-guanidino-pentanoic acid amide trifluoroacetic acid salt] |
| 30 nM | CC(Cc1ccc(C(=N)N)cc1)(C(=O)N[C@@H](COCc1ccccc1)C(=O)N[C@@H](CCCNC(=N)N)C(N)=O)c1ccccc1 (mixture of isomers) [Example 70, 2-(S)-{3-Benzyloxy-2-(S)-[3-(4-carbamimidoyl-phenyl)-2-(R,S)-methyl-2-phenyl-propionylamino]-propionylamino}-5-guanidino-pentanoic acid amide trifluoroacetic acid salt] |
| 22.5 nM | N=C(N)NCCC[C@H](NC(=O)[C@@H](NC(=O)C(Cc1ccc(C(=N)N)cc1)c1ccc2ccccc2c1)C1CCCCC1)C(=O)O (mixture of isomers) [Example 79, 2-(S)-{2-(S)-[3-(4-Carbamimidoyl-phenyl)-2-(R,S)-naphthalen-2-yl-propionyl-amino]-2-cyclohexyl-acetylamino}-5-guanidino-pentanoic acid trifluoroacetic acid salt] |
| 2840 nM | N=C(N)NCCC[C@H](NC(=O)[C@H](CCC(=O)O)NC(=O)C(Cc1ccc(C(=N)N)cc1)c1ccc2ccccc2c1)C(=O)N[C@@H](CC1CCCCC1)C(N)=O (mixture of isomers) [Example 82, 4-(S)-[3-(4-Carbamimidoyl-phenyl)-2-(R,S)-naphthalen-2-yl-propionylamino]-4-[1-(S)-(1-(S)-carbamoyl-2-cyclohexyl-ethylcarbamoyl)-4-guanidino-butylcarbamoyl]-butyric acid trifluoroacetic acid salt] |
| 9.1 nM | N=C(N)NCCC[C@H](NC(=O)[C@@H](NC(=O)C(Cc1ccc(C(=N)N)cc1)c1ccc2ccccc2c1)C1CCCCC1)C(N)=O (mixture of isomers) [Example 95, 2-(S)-{2-(S)-[3-(4-Carbamimidoyl-phenyl)-2-(R,S)-naphthalen-2-yl-propionylamino]-2-cyclohexyl-acetylamino}-5-guanidino-pentanoic acid amide trifluoroacetic acid salt] |
| 8.4 nM | CC(Cc1ccc(C(=N)N)cc1)(C(=O)N[C@H](C(=O)N[C@@H](CCCNC(=N)N)C(N)=O)C1CCCCC1)c1ccccc1 (mixture of isomers) [Example 96, 2-(S)-{2-(S)-[3-(4-Carbamimidoyl-phenyl)-2-(R,S)-methyl-2-phenyl-propionylamino]-2-cyclohexyl-acetylamino}-5-guanidino-pentanoic acid amide trifluoroacetic acid salt] |
| 67 nM | N=C(N)NCCC[C@H](NC(=O)[C@H](Cc1ccccc1)NC(=O)C(Cc1ccc(C(=N)N)cc1)c1cccnc1)C(N)=O (mixture of isomers) [Example 106, 2-(S)-{2-(S)-[3-(4-Carbamimidoyl-phenyl)-2-(R,S)-pyridin-3-yl-propionylamino]-3-phenyl-propionylamino}-5-guanidino-pentanoic acid amide trifluoroacetic acid salt] |

The remaining lines, values behind:

| Structure (SMILES) | Ki |
| --- | --- |
| CCC(C)[C@@H](C(=O)N[C@@H](CCCNC(=N)N)C(N)=O)N(C)C(=O)C(Cc1ccc(C(=N)N)cc1)c1cccnc1 (mixture of isomers) [Example 18, 2-(S)-{[3-(4-Carbamimidoyl-phenyl)-2-(R,S)-pyridin-3-yl-propionyl]-methyl-amino}-3-methyl-pentanoic acid (1-(S)-carbamoyl-4-guanidino-butyl)-amide trifluoroacetic acid salt] | 310 nM |
| CN(C(=O)C(Cc1ccc(C(=N)N)cc1)c1cccnc1)[C@@H](Cc1ccccc1)C(=O)N[C@@H](CCCNC(=N)N)C(N)=O (mixture of isomers) [Example 26, 2-(S)-(2-(S)-{[3-(4-Carbamimidoyl-phenyl)-2-(R,S)-pyridin-3-yl-propionyl]-methyl-amino}-3-phenyl-propionylamino)-5-guanidino-pentanoic acid amide trifluoroacetic acid salt] | 1070 nM |
| N=C(N)NCCC[C@H](NC(=O)[C@H](Cc1ccc2ccccc2c1)NC(=O)C(Cc1ccc(C(=N)N)cc1)c1ccc2ccccc2c1)C(N)=O (mixture of isomers) [Example 39, 2-(S)-{2-(S)-[3-(4-Carbamimidoyl-phenyl)-2-(R,S)-naphthalen-2-yl-propionyl-amino]-3-naphthalen-2-yl-propionylamino}-5-guanidino-pentanoic acid amide trifluoroacetic acid salt] | 2890 nM |
| N=C(N)NCCC[C@H](NC(=O)[C@H](CCCN)NC(=O)C(Cc1ccc(C(=N)N)cc1)c1cccnc1)C(N)=O (mixture of isomers) [Example 51, 2-(S)-{5-Amino-2-(S)-[3-(4-carbamimidoyl-phenyl)-2-(R,S)-pyridin-3-yl-propionylamino]-pentanoylamino}-5-guanidino-pentanoic acid amide trifluoroacetic acid salt] | 3860 nM |
| N=C(N)NCCC[C@H](NC(=O)[C@@H](NC(=O)C(Cc1ccc(C(=N)N)cc1)c1cccnc1)c1ccccc1)C(N)=O (mixture of isomers) [Example 66, 2-(S)-{2-(S)-[3-(4-Carbamimidoyl-phenyl)-2-(R,S)-pyridin-3-yl-propionyl-amino]-2-phenyl-acetylamino}-5-guanidino-pentanoic acid amide trifluoroacetic acid salt] | 2.3 nM |
| CC(Cc1ccc(C(=N)N)cc1)(C(=O)N[C@@H](CC1CCCCC1)C(=O)N[C@@H](CCCNC(=N)N)C(N)=O)c1ccccc1 (mixture of isomers) [Example 100, 2-(S)-{2-(S)-[3-(4-Carbamimidoyl-phenyl)-2-(R,S)-methyl-2-phenyl-propionylamino]-3-cyclohexyl-propionylamino}-5-guanidino-pentanoic acid amide trifluoroacetic acid salt] | 440 nM |
| Cc1cccc(C(Cc2ccc(C(=N)N)cc2)C(=O)N[C@H](C(=O)N[C@@H](CCCNC(=N)N)C(N)=O)C2CCCCC2)c1 (mixture of isomers) [Example 122, 2-(S)-{2-(S)-[3-(4-Carbamimidoyl-phenyl)-2-(R,S)-m-tolyl-propionylamino]-2-cyclohexyl-acetylamino}-5-guanidino-pentanoic acid amide hydrochloric acid salt] | 16 nM |
| CCOC(=O)[C@H](CCCNC(=N)N)NC(=O)[C@@H](NC(=O)C(Cc1ccc(C(=N)N)cc1)c1cccc(F)c1)C1CCCCC1 (mixture of isomers) [Example 126, 2-(S)-{2-(S)-[3-(4-Carbamimidoyl-phenyl)-2-(R,S)-(3-fluoro-phenyl)-propionylamino]-2-cyclohexyl-acetylamino}-5-guanidino-pentanoic acid ethyl ester hydrochloric acid salt] | 11 nM |
